Measurements reported in PMC11536652 (BMC Chemistry, 2024).
Read-outs that look alike come from different tables or passages of the source.

What was measured:
[1] = Stability of tepotinib in QC plasma samples; assay type: in vitro ADME, rat
[2] = previous study, humans; cited from earlier work
[3] = tepotinib 50 mg/kg oral, rat plasma, mean ± SD

CN1CCC(COc2cnc(-c3cccc(Cn4nc(-c5cccc(C#N)c5)ccc4=O)c3)nc2)CC1 [tepotinib, Tepotinib]
stability maintained (long-term stability) ([1]; -80 ℃ refrigerator): 4 weeks | stability maintained over freeze‒thaw cycles ([1]; -80 ℃ to ambient temperature): 3 freeze‒thaw cycles | stability maintained (short-term stability) ([1]; ambient temperature): 3 h | stability maintained in autosampler ([1]; autosampler (10 ℃)): 6 h | Tmax [2]: 9 h | CLz/F ([3]; Group A: control (0.5% CMC-Na)): 10.88 ± 1.04 L/h | AUC(0-t) ([3]; male, Sprague-Dawley, rat, in vivo, po, 50 mg/kg, AUC0→t, Group A: control (0.5% CMC-Na)): 4600 ± 458 ng·h/mL | AUC(0-inf) ([3]; male, Sprague-Dawley, rat, in vivo, po, 50 mg/kg, AUC0→∞, Group A: control (0.5% CMC-Na)): 4630 ± 454 ng·h/mL | Cmax ([3]; male, Sprague-Dawley, rat, in vivo, po, 50 mg/kg, Cmax, Group A: control (0.5% CMC-Na)): 180 ± 38.2 ng/mL | MRT last ([3]; male, Sprague-Dawley, rat, in vivo, po, 50 mg/kg, MRT0→t, Group A: control (0.5% CMC-Na)): 18.9 ± 1.21 h | MRT inf ([3]; male, Sprague-Dawley, rat, in vivo, po, 50 mg/kg, MRT0→∞, Group A: control (0.5% CMC-Na)): 19.4 ± 1.36 h | Tmax ([3]; male, Sprague-Dawley, rat, in vivo, po, 50 mg/kg, Tmax, Group A: control (0.5% CMC-Na)): 8.8 ± 3.03 h | half-life ([3]; male, Sprague-Dawley, rat, in vivo, po, 50 mg/kg, t1/2, Group A: control (0.5% CMC-Na)): 9.4 ± 2.35 h
